# Test results: patent US7098248B2, “Beta-adrenergic blockade reversal of catabolism after severe burn” (Research Development Foundation, priority 2001, dated 2006)
# “Also recorded” adds a separate entry of the source.
# Assays:
# [1] = test system: severely burned (>40% total body surface area) children; experiment: Energy expenditure by metabolic cart (indirect calorimetry); format: in vivo, human
# Procedure: Between midnight and 5 AM on the day of study, oxygen consumption (VO2), carbon dioxide production (VCO2), respiratory quotient (RQ) and resting energy expenditure (REE) were determined with a metabolic cart (Sensormedics Model 2900; Yorba Linda, Calif.) at 30° C. ambient room temperature during continuous feeding.
# [2] = test system: severely burned (>40% total body surface area) children; experiment: Fat-free mass by whole body potassium 40 counting; format: in vivo, human
# Procedure: (§1) Two weeks after treatment was started, a second series of metabolic and protein kinetic studies was performed. Subjects who received at least a four-week treatment course underwent a second whole-body potassium measurement. At discharge, subjects underwent body composition scanning by a dual image x-ray absorptiometry.
# Determination of Fat-Free Mass using Potassium 40 Whole Body Counting. Fat-Free Mass was determined by Whole Body Potassium 40 (^40K) scintillation counting in a heavily shielded low background noise counting room, a 32 NaI detector array, and computed data analysis which has been validated for use in children.^20,21 The counting precision of the instrument used is <1.5%, which was calibrated daily using BOMAB Phantoms with simulated fat overlays. All studies were done after feedings and IV fluids were discontinued to minimize exogenous potassium contamination.
# [3] = test system: severely burned (>40% total body surface area) children; experiment: Lean body mass by dual image x-ray absorptiometry (DEXA); format: in vivo, human
# Procedure: as §1
# Total body lean mass and fat mass were measured by dual image x-ray absorptometry. A Hologic model QDR-4500W DEXA (Hologic Inc, Waltham, Mass.) with the pediatric software package was used to measure body composition.
# [4] = test system: severely burned (>40% total body surface area) children; experiment: Clinical safety: sepsis, held doses, complications during hospitalization; format: in vivo, human
# [5] = test system: severely burned (>40% total body surface area) children; experiment: Serum glucose, potassium and hormone values; conditions: result in words
# [6] = test system: severely burned (>40% total body surface area) children; experiment: Vital signs (hourly heart rate, blood pressure, temperature)
# [7] = test system: severely burned (>40% total body surface area) children; experiment: Stable isotope cross-leg skeletal muscle protein kinetic study
# [8] = between metabolic studies, result in words
# [9] = result in words, listed as propranolol
# [10] = two weeks of oral propranolol, mean ± SEM
# [11] = after treatment, n = 11, model derived, mean, listed as heads read shifted one entry
smiles,measurement,setting,value
"CC(C)NCC(O)COc1cccc2ccccc12 (stereo not drawn) [Propranolol, propranolol]",Carbon dioxide production vs non-treated group,[1]; [8],significant decreases
same,Oxygen consumption vs non-treated group,[1]; [8],significant decreases
same,Respiratory quotient,[1]; [8],did not change
same,Resting energy expenditure vs baseline / non-treated group,[1]; [9],lower than baseline and lower than those of the control group; also recorded: significant decreases
same,"Carbon dioxide production, change from baseline",[1]; [10],−64 ± 22
same,"Oxygen consumption, change from baseline",[1]; [10],−56 ± 22
same,"Respiratory quotient, change from baseline",[1]; [10],−0.1 ± 0.1
same,"Resting energy expenditure, change from baseline",[1]; [10],−422 ± 197
same,Loss of fat free mass,"[2]; 4 weeks of treatment, twelve propranolol subjects, p=0.003 vs controls",1%
same,Fat free mass by whole body potassium counter,"[2]; four weeks of treatment, result in words",did not change; also recorded: preserved
same,Improvement of lean body mass percentage vs non-treated control group,"[3]; at discharge, p=0.01",~6%
same,Lean body mass percentage,"[3]; at full healing and discharge, 9 treated subjects",79.1±1.2%
same,Subjects who developed sepsis,"[4]; during hospitalization, p=1.0 vs controls",4 of 13
same,Subjects in whom one or more doses were held temporarily for a mean arterial pressure between 60 and 65,[4]; during treatment course,3 of 13
same,Asthma,[4]; result in words,No asthma occurred
same,"Evidence of tissue hypoperfusion (wound conversion to full thickness, metabolic acidosis)",[4]; result in words,No other direct or indirect evidence of tissue hypoperfusion
same,Negative clinical sequela resulting from β-blockade,[4]; result in words,No negative clinical sequela
same,Serum potassium values vs non-treated group,[5],higher
same,Heart rates vs baseline and control group,"[6]; during beta blockade, p<0.05, result in words",lower than baseline and lower than those of the control group
same,Decrease in heart rate compared with patient's own baseline and with non-treated controls,"[6]; oral propranolol titrated, p=0.03",20%
same,Blood pressure vs non-treated group / with treatment,[6]; [9],not statistically different; also recorded: no significant decrease
same,"Diastolic blood pressure, change from baseline",[6]; [10],−5 ± 5 mm/mHg
same,"Mean arterial pressure, change from baseline",[6]; [10],1 ± 8 mHg
same,"Systolic blood pressure, change from baseline",[6]; [10],−4 ± 5 mHg
same,"FSR, fractional synthetic rate, rate of incorporation of tracer into muscle over time","[7]; after treatment, n = 11, mean",0.34 %/hr
same,"FM,A, inward transport into myocyte",[7]; [11],0.264 μmol Phe/min/100 ml leg
same,"FM,O, muscle protein breakdown",[7]; [11],0.287 μmol Phe/min/100 ml leg
same,"FO,M, muscle protein synthesis",[7]; [11],0.337 μmol Phe/min/100 ml leg
same,"FV,A, A→V shunt past muscle",[7]; [11],0.821 μmol Phe/min/100 ml leg
same,"FV,M, outward transport from myocyte",[7]; [11],0.214 μmol Phe/min/100 ml leg
same,"Fin, amino acid inflow into leg via femoral artery",[7]; [11],1.085 μmol Phe/min/100 ml leg
same,"Fout, amino acid outflow from leg via femoral vein",[7]; [11],1.034 μmol Phe/min/100 ml leg
same,"Rd, rate of disappearance, approximating protein synthesis",[7]; [11],0.157 μmol Phe/min/100 ml leg
same,Protein synthesis measured by direct incorporation of the tracer,"[7]; long-term β-blockade, result in words",increased
same,Muscle protein net balance from baseline and vs non-treated controls,[7]; result in words,improved
same,Muscle protein net balance from baseline and vs non-treated controls,[7]; [9],achieved anabolic levels
